Measured values published in paper PMC6832219, “Synthesis of Novel Baicalein Amino Acid Derivatives and Biological Evaluation as Neuroprotective Agents” (Molecules, 2019).

How the values were obtained:
H9C2 cells [1] = test: Toxicity on normal H9C2 cells (MTT assay); format: cell-based; details: read-out: Survival Rate (%)
H9C2 cells [2] = test: Toxicity on normal H9C2 cells (MTT assay); format: cell-based; details: MTT; for viability at 6.25 µM / viability at 12.5 µM / viability at 25 µM / viability at 50 µM: H9C2 cells, read-out: Survival Rate (%); for IC50: normal H9C2 cells
Procedure: To study cytotoxicity on normal cells, the cytotoxicity of compounds against normal H9C2 cells were tested.
(§1) The SH-SY5Y ([…]) and H9C2 ([…]) cell lines were obtained from the Chinese Academy of Medical Sciences and Peking Union Medical College. All of the cell lines were grown in dulbecco’s modified eagle medium (DMEM) with 10% (v/v) fetal bovine serum (FBS) and 1% (v/v) penicillin/streptomycin (Thermo Technologies, New York, NY, USA), under a humidified atmosphere containing 5% CO2 at 37 °C. The baicalein derivatives were dissolved in DMSO (Sigma, St. Louis, MO, USA) and added at various concentrations to the cell culture.
(§2) The protective effect of these compounds was evaluated on SH-SY5Y and H9C2 cell lines via the MTT method. The cells growing in the logarithmic phase were cultured in 96-well plates at a density 3 × 10^3 cells/well and incubated for 24 h. Then each well was treated with the required concentrations (50 µM concentrations, 25 µM concentrations, 12.5µM concentrations, 6.25 µM concentrations, and 3.125 µM concentrations) of baicalein derivatives, and incubated 36 h at 37 °C with 5% CO2. After that, the cells were induced by H2O2 (final concentration, […]) for 12 h. Control-differentiated cells were injected with new growth media at equal amounts. Before […] MTT solution (5 mg/mL) was added to each well, the cell culture fluid was discarded, and […] fresh cell culture fluid was added. The plate was incubated for a further 4 h at 37 °C. The cell supernatant medium was removed carefully, without disturbing the attached cells, and formazan crystals were solubilized by adding 150 μL DMSO into each well. The absorbance was measured at 490 nm with a plate reader (BIORAD 550 spectrophotometer, Bio-rad Life Science Development Ltd., Beijing, China). H2O2 was dissolved in DMEM medium. Wells without drugs were used as blanks. The EC50 values were defined as the concentrations that causes the maximum effect of 50%; IC50 values were defined as the concentration of compound which gives 50% growth inhibition, and were calculated using the GraphPad Prism 5. The proliferation rates of damaged SH-SY5Y cells were calculated in the following formula (1): [OD490 (compound) − OD490 (CoCl2)]/[OD490 (NGF) − OD490 (CoCl2)] × 100%(1) The EC50 values were using the equation −pEC50 = log Cmax − log 2 × (ΣP − 0.75 + 0.25Pmax + 0.25Pmin)(2) where Cmax is the maximum concentration, ΣP is the sum of proliferation rates, Pmax is the maximum value of the proliferation rate, and Pmin is the minimum value of the proliferation rate. Cell viability was expressed as a percentage of the control.
The inhibition rate was calculated in the following equation: % inhibition = 1 − (Sample group OD/Control group OD) × 100%(3)

injured SH-SY5Y cells = test: Protective effect against tert-butyl hydroperoxide-induced SH-SY5Y neurotoxicity cells (MTT assay); format: cell-based; details: Homo sapiens; for viability at 3.125 µM / viability at 6.25 µM / viability at 12.5 µM / viability at 25 µM / viability at 50 µM: injured SH-SY5Y cells, read-out: Proliferation Rate (%); for EC50: tert-butyl hydroperoxide-induced SH-SY5Y neurotoxicity, read-out: EC50 for protecting injured SH-SY5Y cells;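 for Proliferation Rate (%): 0% equals CoCl2-injured cells and 100% equals NGF-treated cells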
Procedure: The protective effects of baicalein derivatives in vitro was evaluated against tert-butyl, hydroperoxide-induced, SH-SY5Y neurotoxicity cells using an MTT assay. In addition, their toxicity evaluation was tested on normal H9C2 cells. The resulting proliferation rates (%) at different concentrations, as well as their 50% effective concentrations (EC50) for protecting damaged SH-SY5Y cells of the baicalein amino acid derivatives, are summarized in Table 2.
as §1, §2

SMILES | viability at 100 µM (H9C2 cells [1]) | melting point | viability at 6.25 µM (H9C2 cells [2]) | viability at 12.5 µM (H9C2 cells [2]) | viability at 25 µM (H9C2 cells [2]) | viability at 50 µM (H9C2 cells [2]) | IC50 (H9C2 cells [2]) | viability at 3.125 µM (injured SH-SY5Y cells) | viability at 6.25 µM (injured SH-SY5Y cells) | viability at 12.5 µM (injured SH-SY5Y cells) | viability at 25 µM (injured SH-SY5Y cells) | viability at 50 µM (injured SH-SY5Y cells) | EC50 (injured SH-SY5Y cells)
O=C(NCCCCC(NC(=O)OCc1ccccc1)C(=O)Oc1cc2oc(-c3ccccc3)cc(=O)c2c(O)c1O)OCc1ccccc1 (stereo not shown) [Compound 12, 5,6-dihydroxy-4-oxo-2-phenyl-4H-chromen-7-yl 2,6-di{[(benzyloxy)carbonyl]amino} hexanoate] | 184% | 144.9 °C | 216% | 207% | 200% | 187% | > 100 µM | 1.1% | 2.35% | 7.83% | 20.8% | 7.34% | 61.6 µM
CN(CC(=O)Oc1cc2oc(-c3ccccc3)cc(=O)c2c(O)c1OC(=O)CN(C)C(=O)OC(C)(C)C)C(=O)OC(C)(C)C [Compound 13, 7-[(2-{[(tert-butoxy)carbonyl](methyl)amino}acetyl)oxy]-5-hydroxy-4-oxo-2-phenyl-4H-chromen-6-yl 2-{[(tert-butoxy)carbonyl](methyl)amino}acetate] | 123% | 205.1 °C | 215% | 166% | 152% | 132% | > 100 µM | 40.1% | 92.1% | 91.5% | 73% | 65.9% | 5.42 µM
CC(NC(=O)OC(C)(C)C)C(=O)Oc1c(O)cc2oc(-c3ccccc3)cc(=O)c2c1O (stereo not shown) [Compound 14, 5,7-dihydroxy-4-oxo-2-phenyl-4H-chromen-6-yl 2-{[(tert-butoxy)carbonyl]amino} propanoate] | 97.1% | 196.7 °C | 185% | 166% | 137% | 129% | > 100 µM | 0.35% | 3.34% | 7.09% | 4.09% | 0.1% | 74.9 µM
CC(C)CC(NC(=O)OC(C)(C)C)C(=O)Oc1cc2oc(-c3ccccc3)cc(=O)c2c(O)c1O (stereo not shown) [Compound 15, 5,6-dihydroxy-4-oxo-2-phenyl-4H-chromen-7-yl 2-{[(tert-butoxy)carbonyl]amino}-4-methyl-pentanoate] | 159% | 199.3 °C | 196% | 193% | 177% | 173% | > 100 µM | 17.8% | 42.8% | 42.5% | 41.3% | 22.3% | 23.9 µM
